These results are taken from patent publication US9834535B2, “Sulfamate derivative compounds for use in treating or alleviating pain” (Bio-Pharm Solutions Co., Ltd., priority 2013, dated 2017).

One series relates to SNL model. As to the kind of experiment: Antiallodynic activity on Chung model (SNL, spinal nerve ligation; von Frey). In kind it is in vivo, Sprague-Dawley rats. The following applies: 0.5 h, rat, oral, read-out: SNL model: effect (%) at the concentration administered. As to the method: Male. Sprague-Dawley rats (200-220 g, Orient Bio, Korea) were habituated for 1 week before the experiment and allowed free access to food and water throughout the experimentation. Room temperature and humidity were maintained at 24±2° C. and 50±10%, respectively. Neuropathic surgery (SNL, Spinal nerve ligation) model was clone as described in Kim and Chung (1992). Briefly, animal under gaseous anesthesia with isoflurane a 4:4 flow ratio of NO2. The left lumber spinal nerve L5 and L6 were isolated and tightly ligated with 4-0 silk thread. The wound was treated with a gentamicin antibiotics solution (4 mg/kg, 4 ul/g, bw), and the wound muscle was closed with cat cut chrom 4/0 thread and skin was closed dafilon 4/0 tread. Sham controls were prepared in the same manner as the spinal nerves were exposed, but no ligated L5 and L6 nerves. But, vehicle controls were identical to SNL model, except for administration of vehicles.
(§1) Tactile sensitivity (Mechanical allodynia) was evaluated using von Frey monofilaments before and after treatment and animals were used withdrawal threshold value was less than 4 g. One week after surgery, SNL-operated animals (n=4˜6), sham-operated animals (n=4˜10) and vehicle-operated animals (n=4˜13) were tested for tactile sensitivity with von Frey monofilaments 3 trials in each animal. All Animals were placed in a stainless steel mashed chamber and habituated for 30 min in the test box. The tactile sensitivity for ipsilateral hind paw was measured using the up-and-down method (Dixon, 1980) with seven von Frey monofilaments (0.4, 1, 2, 4, 6, 8, and 15 g) to 3 trials. Tactile sensitivity test was followed by Dixon's method (Dixon, 1980). The 50% paw withdrawal threshold for each paw was calculated using the following formula: [Xth] log=[vFr] log+ky where [vFr] is the force of the last von Frey used, k=0.2249 which is the average interval (in log units) between the von Frey monofilaments, and y is a value that depends upon the pattern of withdrawal responses (Dixon, 1980).
All animals were fasted 18 h before the administration of the compounds. The antiallodynic effect of the compounds were evaluated at the various dose (n=5˜6), orally administrated in a volume of 5 ul/g, bw in a vehicle of 30% (v/v) PEG 400 or 20% (v/v) Tween 80 or Saline. […]
The relative values compared to the sham group (% control) were calculated and shown in Table 5, which show an antiallodynic effect of the test compounds on SNL model in rats.

The next series concerns CFA-induced pain model. As to the kind of experiment: Antiallodynic activity on Complete Freund's Adjuvant (CFA)-induced inflammatory pain model (von Frey). Format: in vivo, Sprague-Dawley rats. Conditions: rat, intraperitoneal; for response vs control in vivo at 18 mg/kg / response vs control in vivo at 40 mg/kg / response vs control in vivo at 60 mg/kg: Rattus norvegicus, read-out: CFA model: effect (%) at the concentration administered. As to the method: Male, Sprague-Dawley rats (200-220 g, Nara Bio, Korea) were habituated for 1 week before surgery and allowed free access to food and water throughout the experimentation. Room temperature and humidity were maintained at 24±2° C. and 50±10%, respectively.
CFA-induced inflammatory pain was induced by the procedure of Nagakura et al. (2003) and Gregory P. et al. (2010) with minor modifications. CFA (sigma, USA) was injected in the left plantar with a 100 ul volume under gaseous anesthesia with isoflurane a 4:4 flow ratio of NO2 Sham controls were injected with 100 ul of saline and vehicle controls were identical to CFA infusion model, except for administration of vehicles.
as §1, with “treatment,” for “treatment”, “CFA-infused” for “SNL-operated”, “(n=12),” for “(n=4˜10)”, “(n=17)” for “(n=4˜13)”
[…] The test was performed peak time of efficacy (0.5 hr) after compound administration.
The relative values compared to the sham (% control) were calculated and shown in Table 4, which show an antiallodynic effect of the compound of Examples on CFA-induced pain model in rats.

Take `CC1(C)O[C@H](c2ccccc2I)[C@@H](COS(N)(=O)=O)O1` [Example 27, ((4R,5R)-5-(2-iodophenyl)-2,2-dimethyl-1,3-dioxolan-4-yl)methyl sulfamate]: in the series with SNL model, the response vs control in vivo at 50 mg/kg is 17.3%. Also, the response vs control in vivo at 18 mg/kg with CFA-induced pain model (ip, 0.5 h, 0.5 h) was 20.2%.
Consider `Nc1ccccc1[C@@H]1OC2(CCCC2)O[C@H]1COS(N)(=O)=O` [Example 72, ((2S,3S)-3-(2-aminophenyl)-1,4-dioxaspiro[4,4]nonan-2-yl)methyl sulfamate], for which the response vs control in vivo at 50 mg/kg in the series on SNL model was determined as 35.1%. Further, the response vs control in vivo at 40 mg/kg with CFA-induced pain model (ip, 0.5 h, 0.5 h) came out at 22.6%.
For `Nc1ccccc1[C@@H]1OC(c2ccccc2)O[C@H]1COS(N)(=O)=O` (stereo partly drawn) [Example 76, ((4S,5S)-5-(2-aminophenyl)-2-phenyl-1,3-dioxolan-4-yl)methyl sulfamate], in the series with SNL model (90 mg/kg), the response vs control in vivo at 90 mg/kg is 22.9%. Further, the response vs control in vivo at 40 mg/kg in the series on CFA-induced pain model (ip, 0.5 h, 0.5 h) came out at 25.7%.
As to `Cc1ccccc1[C@@H]1OC(C)(C)O[C@H]1COS(N)(=O)=O` [Example 92, ((4S,5S)-5-(2-methylphenyl)-2,2-dimethyl-1,3-dioxolan-4-yl)methyl sulfamate], the response vs control in vivo at 50 mg/kg with SNL model came to 37.3%. Further, in the series on CFA-induced pain model (ip, 0.5 h, 0.5 h), the response vs control in vivo at 18 mg/kg is 22.3%.
For `CC1(C)O[C@@H](COS(N)(=O)=O)[C@H](c2ccccc2)O1` [Example 106, ((4S,5S)-5-phenyl-2,2-dimethyl-1,3-dioxolan-4-yl)methyl sulfamate] the same measures were 25.4% and 23.2%.
Regarding `NS(=O)(=O)OCC[C@H]1OC2(CCCCC2)O[C@@H]1Cc1ccccc1Cl` [Example 144, 2-((2R,3R)-3-(2-chlorobenzyl)-1,4-dioxaspiro[4,5]decan-2-yl)ethyl sulfamate], the response vs control in vivo at 40 mg/kg in the series on CFA-induced pain model (ip, 0.5 h, 0.5 h) turned out to be 36.6%.
Same read-out and setting: to `CCC1(CC)O[C@H](COS(N)(=O)=O)[C@@H](Cc2ccccc2Cl)O1` [Example 148, ((4R,5R)-5-(2-chlorobenzyl)-2,2-diethyl-1,3-dioxolan-4-yl)methyl sulfamate] belongs 15.5%.
On the same count and under the same terms, to `NS(=O)(=O)OC[C@H]1OC2(CCCC2)O[C@@H]1Cc1ccccc1Cl` [Example 150, ((2R,3R)-3-(2-chlorobenzyl)-1,4-dioxaspiro[4,4]nonan-2-yl)methyl sulfamate] belongs 17.6%; to `NS(=O)(=O)OC[C@H]1OC2(CCCCC2)O[C@@H]1Cc1ccccc1Cl` [Example 152, ((2R,3R)-3-(2-chlorobenzyl)-1,4-dioxaspiro[4,5]decan-2-yl)methyl sulfamate], 34.9%; to `CC1(C)O[C@@H](CCOS(N)(=O)=O)[C@H](c2ccccc2Cl)O1` [Example 154, 2-((4S,5S)-5-(2-chlorophenyl)-2,2-dimethyl-1,3-dioxolan-4-yl)ethyl sulfamate], 32.1%.
Same read-out and setting: as for `CCC1(CC)O[C@@H](CCOS(N)(=O)=O)[C@H](c2ccccc2Cl)O1` [Example 156, 2-((4S,5S)-5-(2-chlorophenyl)-2,2-diethyl-1,3-dioxolan-4-yl)ethyl sulfamate], the figure is 30.8%.
As to `NS(=O)(=O)OCC[C@@H]1OC2(CCCC2)O[C@H]1c1ccccc1Cl` [Example 158, 2-((2S,3S)-3-(2-chlorophenyl)-1.4-dioxaspiro[4,4]nonan-2-yl)ethyl sulfamate], the response vs control in vivo at 40 mg/kg with CFA-induced pain model (ip, 0.5 h, 0.5 h) amounted to 29.8%.
Consider `NS(=O)(=O)OCC[C@@H]1OC2(CCCCC2)O[C@H]1c1ccccc1Cl` [Example 160, 2-((2S,3S)-3-(2-chlorophenyl)-1,4-dioxaspiro[4,5]decan-2-yl)ethyl sulfamate], for which the response vs control in vivo at 40 mg/kg in the series on CFA-induced pain model (ip, 0.5 h, 0.5 h) is 38.4%.
On the same count and under the same terms, to `CC1(C)O[C@H](c2sc(Cl)nc2Cl)[C@@H](COS(N)(=O)=O)O1` [Example 163, ((4R,5S)-5-(2,4-dichlorothiazol-5-yl)-2,2-dimethyl-1,3-dioxolan-4-yl)methyl sulfamate] belongs 23.1%.
As to `CC1(C)O[C@@H](COS(N)(=O)=O)[C@H](c2sc(Cl)nc2Cl)O1` [Example 164, ((4S,5R)-5-(2,4 dichlorothiazol-5-yl)-2,2-dimethyl-1,3-dioxolan-4-yl)methyl sulfamate], the response vs control in vivo at 60 mg/kg in the series with CFA-induced pain model (ip, 0.5 h, 0.5 h) turned out to be 66.8%.
For the compound `CC1(C)O[C@H](c2cnc(Cl)s2)[C@@H](COS(N)(=O)=O)O1` [Example 165, ((4R,5S)-5-(2-chlorothiazol-5-yl)-2,2-dimethyl-1,3-dioxolan-4-yl)methyl sulfamate], in the series on CFA-induced pain model (ip, von Frey, 0.5 h), the 50% effective dose (ED50) is more than 60 mg/kg. Besides, in the series with CFA-induced pain model (noted with ED50 >60 mg/kg), the “CFA model: adverse observation” value was “Seizure”.
Turning to `Cc1ncsc1[C@H]1OC(C)(C)O[C@@H]1COS(N)(=O)=O` [Example 167, ((4R,5S)-2,2-dimethyl-5-(4-methylthiazol-5-yl)-1,3-dioxolan-4-yl)methyl sulfamate], the response vs control in vivo at 60 mg/kg with CFA-induced pain model (ip, 0.5 h, 0.5 h) is 38.6%.
The same measure, in the same setting: to `Cc1ncsc1[C@@H]1OC(C)(C)O[C@H]1COS(N)(=O)=O` [Example 168, ((4S,5R)-2,2-dimethyl-5-(4-methylthiazol-5-yl)-1,3-dioxolan-4-yl)methyl sulfamate] belongs 77.2%.
On the same count and under the same terms, to `Cc1nc(Cl)sc1[C@@H]1OC(C)(C)O[C@H]1COS(N)(=O)=O` [Example 170, ((4S,5R)-2,2-dimethyl-5-(2-chloro-4-methylthiazol-5-yl)-1,3-dioxolan-4-yl)methyl sulfamate] belongs 24.2%.
Still for that read-out and setting: as for `CC1(C)O[C@@H](COS(N)(=O)=O)[C@H](c2ccsc2)O1` [Example 171, ((4S,5S)-2,2-dimethyl-5-(thiophen-3-yl)-1,3-dioxolan-4-yl)methyl sulfamate], the figure is 29.8%; as for `CC1(C)O[C@@H](COS(N)(=O)=O)[C@H](c2ccc(Cl)s2)O1` [Example 172, ((4S,5R)-2,2-dimethyl-5-(5-chlorothiophen-2-yl)-1,3-dioxolan-4-yl)methyl sulfamate], 35.9%; as for `CC1(C)OC(COS(N)(=O)=O)C(c2ccncc2Cl)O1` (stereo not shown) [Example 173, (5-(3-chloropyridin-4-yl)-2,2-dimethyl-1,3-dioxolan-4-yl)methyl sulfamate], 33.9%.
Take `CC1(C)OC(COS(N)(=O)=O)C(c2cnccc2Cl)O1` (stereo not shown) [Example 174, (5-(4-chloropyridin-3-yl)-2,2-dimethyl-1,3-dioxolan-4-yl)methyl sulfamate]: in the series with CFA-induced pain model (ip, 0.5 h, 0.5 h), the response vs control in vivo at 60 mg/kg was determined as 24.7%.
On the same count and under the same terms, to `CC1(C)OC(COS(N)(=O)=O)C(c2cncnc2)O1` (stereo not shown) [Example 175, 2,2-dimethyl-5-(pyrimidin-5-yl)-1,3-dioxolan-4-yl)methyl sulfamate] belongs 44.4%.
Same read-out and setting: to `CC1(C)OC(COS(N)(=O)=O)C(c2cnc(Cl)nc2)O1` (stereo not shown) [Example 176, (2,2-dimethyl-5-(2-chloropyrimidin-5-yl)-1,3-dioxolan-4-yl)methyl sulfamate] belongs 40%.

In general, ED50 refers to the dose that gives a 50% effect, or the effect in half of the subjects.
